Source: patent US8703953B2, “Aryl ether-base kinase inhibitors” (Bristol-Myers Squibb Company, priority 2012, dated 2014)

What was measured:
[1] = target: T1, GST-Xa-hAAK1 (Homo sapiens, UniProt Q2M2I8); assay: AAK1 Kinase Assay (Caliper LabChip, fluoresceinated peptide substrate); type: biochemical; conditions: ATP 22 μM
T1 construct: made in house
Experimental: The assays were performed in U-bottom 384-well plates. The final assay volume was 30 μl prepared from 15 μl additions of enzyme and substrates (fluoresceinated peptide (5-FAM)-Aha-[…]-NH2 and ATP) and test compounds in assay buffer (10 mM Tris-HCL pH 7.4, 10 mM MgCl2, 0.01% Tween-20 and 1.0 mM DTT). The reactions were initiated by the combination of bacterially expressed, GST-Xa-hAAK1 with substrates and test compounds. The reactions were incubated at room temperature for 3 hours and terminated by adding 60 μl of 35 mM EDTA buffer to each sample. The reactions were analyzed on the Caliper LabChip 3000 (Caliper, Hopkinton, Mass.) by electrophoretic separation of the fluorescent substrate and phosphorylated product. […] The final concentration of reagents in the assays are ATP, 22 μM; (5-FAM)-Aha-[…]-NH2, 1.5 μM; GST-Xa-hAAK1, 3.5 nM; and DMSO, 1.6%. Dose response curves were generated to determine the concentration required inhibiting 50% of kinase activity (IC50). Compounds were dissolved at 10 mM in dimethylsulfoxide (DMSO) and evaluated at eleven concentrations. IC50 values were derived by non-linear regression analysis.

[2] = target: T2, AAK1 (full length human) (Homo sapiens, UniProt Q2M2I8); assay: HEK281 Cell-Based Assay (HEK293F cells transfected with AAK1 and AP2M1; phospho-mu2 Western blot); conditions: 3 h
T2 construct: HA; expressed in transfected cells; host or cells: HEK293F
Experimental: HEK293F cells were cultured in media containing DMEM (Gibco, cat. #11965), 10% FBS (SAFC Biosciences, cat. #12103C), 1× GPS (glutamine, penicillin and streptomycin). On day one, cells were plated on a 10 cm dish so that they are ˜80% confluent at time of transfection. Roughly 12 million cells were in a 10 cm dish at time of transfection. On day two, each dish was transfected with 48 ug DNA and 144 μl Lipofectamine 2000 (Invitrogen, cat. #11668-019). The DNA was comprised of a mixture (per 10 cm dish) containing 3 ug AAK1/HA/pIRES (full length human, NCBI accession no. NP_055726.2), 45 μg Flag/AP2MI/pcDNA (full length human), and 1.5 ml OPTI-MEM. The Lipofectamine 2000 is made up of a mixture (per 10 cm dish) containing 144 μl Lipofectamine 2000 and 1.5 ml OPTI-MEM. Each mixture was transferred to individual 15 ml tubes and incubated at RT for 5 minutes, and then the two mixes were combined and incubated at RT for 20 minutes. Growth media was then aspirated from each 10 cm plate and replaced with 10 ml of DMEM+10% FBS (no GPS). Finally, 3 ml DNA/Lipofectamine mix was added to each 10 cm dish and mix gently followed by incubate of plate overnight at 37° C. and 5% CO2.
On day three, compounds were diluted in 100% DMSO at 1000× final concentration, followed by 3-fold serial dilutions for a total of 5 concentrations tested. Four compounds were tested per 10 cm dish. One ul of each compound dilution was then pipetted into a deep-well, 96-well plate, followed by addition of 500 μl DMEM+0.5% FBS into each well for a 2× final concentration of each compound. Cells were resuspended in a 10 cm dish by simple pipetting (HEK293 cells come off the plate that easy at this point) and then transferred to a 50 ml conical tube and pelleted by centrifugation at 1000 rpm for 5 min. Cell pellets were then resuspended in 2.75 ml DMEM+0.5% FBS per 10 cm dish and 100 μl of cell suspension transferred into each well of 96-well TC plate. Finally, 100 μl of 2× compound diluted in DMEM+0.5% FBS was then added into wells containing cell suspension for a 1× final concentration. Plates were then incubated at 37° C. and 5% CO2 for 3 hours followed by transferring of cell suspensions from each well into 12-tube PCR strips. The PCR strips were spun in a tip rack at 1000 rpm for 5 minutes to pellet cells and media was then removed by pipetting without disturbing the cell pellet.
To prepare for Western Blot analysis, cell pellets were resuspend in 40 ul 1× LDS-PAGE sample buffer (Invitrogen, cat. #NP0008)+2× Halt phophatase and protease inhibitor cocktail (Thermo Scientific, cat. #1861284), followed by sonicating each with microtip sonicator set at 5 for 8-10 seconds. Five ul of 10× NuPage Sample Reducing Agent (with […]) was to each sample followed by heat denaturing at 70C for 10 min on PCR machine. A total of 10 μl per sample was loaded into each lane of a 4-20% Tris-Glycine Criterion 26-well gel (Biorad, cat. #345-0034) for the phospho-mu2 blot and 10 μl per lane in a 4-12% Bis-Tris (+MES buffer) NuPAGE 26-well gel (Invitrogen, cat. #WG1403BX10) for the mu2 blot. For controls, 2 ng of phospho-mu2 or 20 ng mu2/Flag proteins were loaded in the last well of each gel. After SDS-PAGE, samples on each gel were transferred to PVDF membrane using an iBlot and membranes were blocked for one hour in TBST+5% milk, followed by wash 3× for 5-10 min with TBST. Criterion gels were probed with rabbit anti-phospho-mu2 (1:5000; a rabbit polyclonal antibody produced by New England Peptide and affinity purified at Lexicon) in TBST+5% BSA, whereas, NuPAGE gels were probed with mouse anti-Flag (1:500; Sigma, cat. #F1804) in TBST+5% milk, and these primary antibodies were incubated overnight at 4° C. on a rocker. […]

T2 sequence (Q2M2I8 whole entry): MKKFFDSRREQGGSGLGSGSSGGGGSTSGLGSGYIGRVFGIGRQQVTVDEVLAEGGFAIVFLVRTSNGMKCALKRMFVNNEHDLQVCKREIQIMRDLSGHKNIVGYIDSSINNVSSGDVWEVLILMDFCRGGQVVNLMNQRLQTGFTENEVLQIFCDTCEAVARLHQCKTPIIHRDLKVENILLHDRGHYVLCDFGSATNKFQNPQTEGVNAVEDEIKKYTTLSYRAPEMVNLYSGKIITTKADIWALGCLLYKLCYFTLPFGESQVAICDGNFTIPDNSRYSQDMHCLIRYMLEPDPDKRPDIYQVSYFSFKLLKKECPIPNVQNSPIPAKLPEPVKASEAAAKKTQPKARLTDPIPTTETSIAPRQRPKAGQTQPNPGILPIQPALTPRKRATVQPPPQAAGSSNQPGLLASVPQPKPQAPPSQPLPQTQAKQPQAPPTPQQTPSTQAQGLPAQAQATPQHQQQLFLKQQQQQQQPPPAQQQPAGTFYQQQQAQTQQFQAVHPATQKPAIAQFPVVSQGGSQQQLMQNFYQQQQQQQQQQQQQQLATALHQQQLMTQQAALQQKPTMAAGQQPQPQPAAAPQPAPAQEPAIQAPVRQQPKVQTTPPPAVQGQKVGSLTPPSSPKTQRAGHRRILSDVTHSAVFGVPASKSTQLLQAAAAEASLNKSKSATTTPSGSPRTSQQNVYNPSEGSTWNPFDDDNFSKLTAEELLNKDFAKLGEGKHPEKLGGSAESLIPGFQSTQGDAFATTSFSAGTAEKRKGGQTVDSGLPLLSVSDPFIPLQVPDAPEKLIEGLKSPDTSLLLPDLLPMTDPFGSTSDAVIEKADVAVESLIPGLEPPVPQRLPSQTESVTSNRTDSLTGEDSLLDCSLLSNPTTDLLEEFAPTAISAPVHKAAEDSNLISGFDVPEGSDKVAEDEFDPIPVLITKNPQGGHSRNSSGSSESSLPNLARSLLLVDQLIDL
T1 sequence (Q2M2I8 whole entry): as above

Compound	IC50 ([1]; listed as IC50 ranges) [nM]	other results
CC(C)C[C@H](N)COc1ccc2c(c1)OC(C)c1cnccc1-2 (mixture of isomers) [Example 6, (2S)-4-methyl-1-(5-methyl-5H-chromeno[3,4-c]pyridin-8-yloxy)pentan-2-amine]	1 to 10	
CC(C)C[C@H](N)COc1ccc2c(c1)OC(C1CC1)c1cnccc1-2 (mixture of isomers) [Example 8, (2S)-1-(5-cyclopropyl-5H-chromeno[3,4-c]-pyridin-8-yloxy)-4-methylpentan-2-amine]	10 to 100	IC50 ([2]; listed as IC50 ranges): 10 to 100 nM
CCC1Oc2cc(OC[C@@H](N)CC(C)C)ccc2-c2ccncc21 (mixture of isomers) [Example 10, (2S)-1-(5-ethyl-5H-chromeno[3,4-c]pyridin-8-yloxy)-4-methylpentan-2-amine]	10 to 100	IC50 ([2]; listed as IC50 ranges): 10 to 100 nM
CC(C)C[C@H](N)COc1cc2c(cc1Br)-c1ccncc1C(C)O2 (mixture of isomers) [Example 21, (2S)-1-(9-bromo-5-methyl-5H-chromeno[3,4-c]pyridin-8-yloxy)-4-methylpentan-2-amine]	1 to 10	IC50 ([2]; listed as IC50 ranges): < 1 nM
CC(C)C[C@H](N)COc1cc2c(cc1C#N)-c1ccncc1C(C)O2 (mixture of isomers) [Example 22, 8-((S)-2-amino-4-methylpentyloxy)-5-methyl-5H-chromeno[3,4-c]pyridine-9-carbonitrile]	1 to 10	IC50 ([2]; listed as IC50 ranges): < 1 nM
CC1Oc2cc(OC[C@@H](N)CC3CCCC3)ccc2-c2ccncc21 (mixture of isomers) [Example 24, (2S)-1-cyclopentyl-3-(5-methyl-5H-chromeno[3,4-c]pyridin-8-yloxy)propan-2-amine]	10 to 100	IC50 ([2]; listed as IC50 ranges): 10 to 100 nM
CC(C)C[C@H](N)COc1cc2c(cc1Cl)-c1ccncc1C(C(F)(F)F)O2 (mixture of isomers) [Example 27, (2S)-1-((9-chloro-5-(trifluoromethyl)-5H-chromeno[3,4-c]pyridin-8-yl)oxy)-4-methylpentan-2-amine]	1 to 10	IC50 ([2]; listed as IC50 ranges): 1 to 10 nM
CC(C)C[C@H](N)COc1cc2c(cc1Br)-c1ccncc1C(C(F)(F)F)O2 (mixture of isomers) [Example 28, (2S)-1-((9-bromo-5-(trifluoromethyl)-5H-chromeno[3,4-c]pyridin-8-yl)oxy)-4-methylpentan-2-amine]	1 to 10	IC50 ([2]; listed as IC50 ranges): 1 to 10 nM
NC(CCC(F)(F)F)COc1ccc2c(c1)OCc1cnccc1-2 (racemic) [Example 17, 1-(5H-chromeno[3,4-c]pyridin-8-yloxy)-5,5,5-trifluoropentan-2-amine]	10 to 100	IC50 ([2]; listed as IC50 ranges): 10 to 100 nM
CC(C)C[C@@H](N)COc1ccc2c(c1)OC(C)c1cnccc1-2 (single isomer, unassigned) [Example 7b]	10 to 100	
CC(C)C[C@H](N)COc1ccc2c(c1)OC(C1CC1)c1cnccc1-2 (single isomer, unassigned) [Example 8a]	100 to 1000	
CC(C)C[C@@H](N)COc1ccc2c(c1)OC(C1CC1)c1cnccc1-2 (single isomer, unassigned) [Example 9b]		IC50 ([2]; numeric values): > 300 nM
CCC1Oc2cc(OC[C@@H](N)CC(C)C)ccc2-c2ccncc21 (single isomer, unassigned) [Example 10b]	10 to 100	
CC(C)C[C@H](N)COc1cc2c(cc1I)-c1ccncc1C(C)O2 (single isomer, unassigned) [Example 31a]	1 to 10	
CC(C)C[C@H](N)COc1cc2c(cc1I)-c1ccncc1C(C)O2 (single isomer, unassigned) [Example 31b]	1 to 10	
CC(C)C[C@@H](N)COc1ccc2c(c1)OCc1cnccc1-2 [Example 1, (R)-1-(5H-chromeno[3,4-c]pyridin-8-yloxy)-4-methylpentan-2-amine]		IC50 ([1]; numeric values): 20 nM
N[C@@H](COc1ccc2c(c1)OCc1cnccc1-2)Cc1ccccc1 [Example 2, (R)-1-(5H-chromeno[3,4-c]pyridin-8-yloxy)-3-phenylpropan-2-amine]	100 to 1000	
CC[C@@H](N)COc1ccc2c(c1)OCc1cnccc1-2 [Example 3, (R)-1-(5H-chromeno[3,4-c]pyridin-8-yloxy)butan-2-amine]	100 to 1000	
CC[C@H](N)COc1ccc2c(c1)OCc1cnccc1-2 [Example 4, (S)-1-(5H-chromeno[3,4-c]pyridin-8-yloxy)butan-2-amine]	10 to 100	
CC(C)C[C@@H](N)COc1ccc2c(c1)OC(C1CC1)c1cnccc1-2 (stereo partly drawn) [Example 9]	100 to 1000	
CC(C)C[C@H](N)COc1ccc2c(c1)OC1(COC1)c1cnccc1-2 [Example 19, (S)-4-methyl-1-(spiro[chromeno[3,4-c]pyridine-5,3′-oxetan]-8-yloxy)pentan-2-amine]	100 to 1000	
CC(C)C[C@H](N)COc1ccc2c(c1)OC(CO)(CCl)c1cnccc1-2 (stereo partly drawn) [Example 20, (8-(((S)-2-amino-4-methylpentyl)oxy)-5-(chloromethyl)-5H-chromeno[3,4-c]pyridin-5-yl)methanol]	10 to 100	
CC(C)C[C@H](N)COc1cc2c(cc1C#N)-c1ccncc1CO2 [Example 23, (S)-8-(2-amino-4-methylpentyloxy)-5H-chromeno[3,4-c]pyridine-9-carbonitrile]	1 to 10	
CC(C)C[C@H](N)COc1ccc2c(c1)OC(C)c1cnc(N)cc1-2 (stereo partly drawn) [Example 29, 8-(((S)-2-amino-4-methylpentyl)oxy)-5-methyl-5H-chromeno[3,4-c]pyridin-2-amine]	10 to 100	
CC(=O)Nc1cc2c(cn1)C(C)Oc1cc(OC[C@@H](N)CC(C)C)ccc1-2 (stereo partly drawn) [Example 30, N-(8-(((S)-2-amino-4-methylpentyl)oxy)-5-methyl-5H-chromeno[3,4-c]pyridin-2-yl)acetamide]	10 to 100	
Cc1nccc2c1c(=O)oc1cc(OC[C@@H](N)CC(C)C)ccc12 [Example 34, (S)-8-((2-amino-4-methylpentyl)oxy)-4-methyl-5H-chromeno[3,4-c]pyridin-5-one]	10 to 100	
Cc1cc2c(cn1)COc1cc(OC[C@@H](N)CC(C)C)ccc1-2 [Example 39, (S)-4-methyl-1-((2-methyl-5H-chromeno[3,4-c]pyridin-8-yl)oxy)pentan-2-amine]	100 to 1000	
CC(=O)Nc1cc2c(cn1)COc1cc(OC[C@H](N)CC(C)C)ccc1-2 [Example 40, (R)-N-(8-(2-amino-4-methylpentyloxy)-5H-chromeno[3,4-c]pyridin-2-yl)acetamide]	1 to 10	
